The values below are quoted from earlier work in patent US6525095B1, “Propionate feed supplement” (New Mexico State University Technology Transfer Corporation, priority 2000, dated 2003).

The test system of this data set is swine. The settings on record: for Average daily gain / Average feed intake per day / Total insulin: 200 ppb chromium in feed.

With `CCC(=O)[O-].CCC(=O)[O-].CCC(=O)[O-].[Cr+3]` [chromium (III) propionate], the Average daily gain result is given as “decrease”, the “Average feed intake per day” value is reported as “decrease” and the Total insulin entry is recorded as “remained unaffected”. Further, where the note is “during the insulin challenge”, the Glucose clearance result was “increased slightly more” and the Glucose half-life result is given as “decreased”.

Regarding chromium (III) tripicolinate, the Average daily gain entry was “decrease”, the “Average feed intake per day” value is “decrease” and the Total insulin result is “remained unaffected”. Further, under “during the insulin challenge”, the Glucose half-life result is on record as “decreased”.
